Results from patent publication US12329729B1, “Method of treating cancer in a subject” (IMAM MOHAMMAD IBN SAUD ISLAMIC UNIVERSITY, priority 2024, dated 2025).
Converted amounts (≈) assume the structure as drawn.

Key:
Type in all cases: cell-based
BCL-2 = test: Downregulation of anti-apoptotic protein BCL-2; settings: compared to the control (untreated) cells
IL-6 = test: Downregulation of; settings: compared to the control (untreated) cells
COX-2 = test: Downregulation of pro-inflammatory marker COX-2; settings: compared to the control (untreated) cells
HeLa = test: IC50 towards HeLa cancer cell line; settings: Homo sapiens
Caspase 8 = test: Upregulation of pro-apoptotic protein Caspase 8; settings: compared to the control (untreated) cells
Caspase 9 = test: Upregulation of pro-apoptotic protein Caspase 9; settings: compared to the control (untreated) cells
MMP2 = test: Downregulation of; settings: compared to the control (untreated) cells
MDA-MB-468 = test: IC50 towards MDA-MB-468 cancer cell line; settings: Homo sapiens
Caspase 3 = test: Upregulation of pro-apoptotic protein Caspase 3; settings: compared to the control (untreated) cells
BAX = test: Upregulation of pro-apoptotic protein BAX; settings: compared to the control (untreated) cells
PC3 = test: IC50 towards PC3 cancer cell line; settings: Homo sapiens, PC-3
Caspase 6 = test: Upregulation of pro-apoptotic protein Caspase 6; settings: compared to the control (untreated) cells
FaDu = test: IC50 towards FaDu cancer cell line; settings: Homo sapiens
A549 = test: IC50 towards A549 cancer cell line; settings: Homo sapiens
p53 = test: Upregulation of pro-apoptotic protein p53; settings: compared to the control (untreated) cells
IL-1β = test: Downregulation of pro-inflammatory marker IL-1β; settings: compared to the control (untreated) cells
MMP9 = test: Downregulation of; settings: compared to the control (untreated) cells

Row | SMILES | downregulation of BCL-2 (BCL-2) [fold changes] | downregulation of IL-6 (IL-6) [fold changes] | downregulation of COX-2 (COX-2) [fold changes] | IC50 (HeLa) [µg/mL] | upregulation of Caspase 8 (Caspase 8) [fold changes] | upregulation of Caspase 9 (Caspase 9) [fold changes] | downregulation of MMP2 (MMP2) [fold changes] | IC50 (MDA-MB-468) [µg/mL] | upregulation of Caspase 3 (Caspase 3) [fold changes] | upregulation of BAX (BAX) [fold changes] | IC50 (PC3) [µg/mL] | upregulation of Caspase 6 (Caspase 6) [fold changes] | IC50 (FaDu) [µg/mL] | IC50 (A549) [µg/mL] | upregulation of p53 (p53) [fold changes] | downregulation of IL-1β (IL-1β) [fold changes] | downregulation of MMP9 (MMP9) [fold changes]
1 | CCOc1ccc(Oc2ccc(/C=N/c3ccc([Se][Se]c4ccc(/N=C/c5ccc(Oc6ccc(OCC)cc6)cc5)cc4)cc3)cc2)cc1 [YS9, N,N′-(Diselanediylbis(4,1-phenylene))bis(1-(4-(4-ethoxyphenoxy)phenyl)methanimine)] | 0.35 | 0.48 | 0.37 | 4 (≈ 5.06 µM) | 3.16 | 2.41 | 0.31 | 6 (≈ 7.59 µM) | 5.82 | 1.95 | 12 (≈ 15.1 µM) | 10.37 | 4.73 (≈ 5.98 µM) | 4.4 (≈ 5.56 µM) | 3.50 | 0.46 | 0.48
2 | COc1cccc2c1C(=O)c1c(O)c3c(c(O)c1C2=O)C[C@@](O)(C(=O)CO)C[C@@H]3O[C@H]1C[C@H](N)[C@H](O)[C@H](C)O1 [doxorubicin, reference compound] |  |  |  |  |  |  |  |  |  |  | 5.83 (≈ 10.7 µM) |  | 13.1 (≈ 24.1 µM) |  |  |  | 
